Experimental data taken from US20240209004A1, “BORIC ACID DERIVATIVE ACTING AS Beta-LACTAMASE INHIBITOR” (TUOJIE BIOTECH (SHANGHAI) CO., LTD., priority 2021, published 2024).
In brackets after ≈: the same amount, converted by molar mass. Read-outs that look alike come from different tables or passages of the source.

Assays:
Assay type in all cases: cell-based
[1] = test system: Klebsiella pneumoniae ATCC BAA-1705; test: MIC of β-lactamase inhibitors in the presence of antibiotic (Test Example 1)
Description: (§1) • 1) The antibiotics cefepime and biapenem (purchased from MCE Inc.).
(§2) The biosafety cabinet was sterilized with ultraviolet light for 30 min. Glycerol tubes were taken out of a −80° C. freezer, and streaks were gently formed in the glycerol tubes using inoculating loops. Bacteria were inoculated onto MHIIA solid plates. The plates were incubated overnight in a 37° C. incubator.
(§3) 30 μL of compound stock solution was added to column 1 of a 96-well v-bottom plate, and DMSO was added to columns 2-10. Subsequently, 15 μL was transferred from column 1 to column 2 using a pipette and well mixed gently, and then 15 μL of solution was transferred from column 2 to column 3: the serial dilution process proceeded to column 10 (200×β-lactamase inhibitor working solutions were prepared). The two antibiotics were diluted with corresponding solvents to form 1.6 mg/mL solutions.
(§4) 1 μL of 200×B-lactamase inhibitor solution and 1 μL of 1.6 mg/mL antibiotic were added to a new 96-well round-bottom plate. The plate that had been incubated overnight was taken out of the incubator, and several monoclones were picked into normal saline using an inoculating loop. The bacterial solution was adjusted to a concentration of about 1.0×10^8CFU/mL and diluted 200-fold with medium, and 198 μL of the resulting bacterial solution was added to the test plate. The test plate was incubated in a 37° C.incubator for 18-24 h. The 96-well plate that had been incubated for 20 h was taken out of the incubator. The concentration that prevented visible bacterial growth was defined as the minimum inhibitory concentration.

[2] = test system: Klebsiella pneumoniae ATCC BAA-2472; test: as above
Description: as §1, §2, §3, §4

[3] = test system: Escherichia coli ARLG-2829 (Urine); test: as above; details: in the presence of Cefepime (8 ug/mL)
Description: as §1, §2, §3, §4

[4] = test system: cefepime-resistant Escherichia coli; test: MIC in combination with cefepime for drug-resistant bacteria (Test Example 2); details: for MIC: Escherichia coli, with CPM 8 μg/mL, read-out: concentration for achieving a bacteriostatic effect where the CPM MIC is fixed at 8 μg/mL
Description: as §2
(§5) 30 μL of compound stock solution was added to column 1 of a 96-well v-bottom plate, and DMSO was added to columns 2-10. Subsequently, 15 μL was transferred from column 1 to column 2 using a pipette and well mixed gently, and then 15 μL of solution was transferred from column 2 to column 3; the serial dilution process proceeded to column 10 (200×β-lactamase inhibitor working solutions were prepared). The antibiotic was diluted with a corresponding solvent to form a 1.6 mg/mL solution.

[5] = test system: cefepime-resistant Klebsiella pneumoniae; test: as above; details: for MIC: Klebsiella pneumoniae, with CPM 8 μg/mL, read-out: concentration for achieving a bacteriostatic effect where the CPM MIC is fixed at 8 μg/mL
Description: as §2, §5

[6] = test system: cefepime-resistant Pseudomonas aeruginosa; test: as above; details: read-out: concentration for achieving a bacteriostatic effect where the CPM MIC is fixed at 8 μg/mL
Description: as §2, §5

[7] = test system: cefepime-resistant Acinetobacter baumannii; test: as above; details: Acinetobacter baumannii, with CPM 8 μg/mL, read-out: concentration for achieving a bacteriostatic effect where the CPM MIC is fixed at 8 μg/mL
Description: as §2, §5

[8] = test system: cefepime-resistant Klebsiella pneumoniae expressing different types of β-lactamases; test: microbe, parasite or virus in culture; details: for MIC: Klebsiella pneumoniae; for MIC, Cefepime + compound (8 ug/ml): inhibitor at 8 ug/ml
Description: as §2
30 μL of compound stock solution was added to column 1 of a 96-well v-bottom plate, and DMSO was added to columns 2-10. Subsequently, 15 μL was transferred from column 1 to column 2 using a pipette and well mixed gently, and then 15 μL of solution was transferred from column 2 to column 3: the serial dilution process proceeded to column 10 (200×β-lactamase inhibitor working solutions were prepared). The antibiotic was diluted with a corresponding solvent to form a 1.6 mg/mL solution.

[9] = in the presence of Biapenem (8 ug/mL)
[10] = in the presence of Cefepime (8 ug/mL)
[11] = summary in words of Test Example 2

## O=C(O)c1c(F)ccc2c1OB(O)[C@@H]1C[C@H]21 [QPX-7728]
[1]; [9]
  Minimum inhibitory concentration: ≤0.03125 µg/mL
[1]; [10]
  Minimum inhibitory concentration: 0.25 µg/mL
[2]; [9]
  Minimum inhibitory concentration: 8 µg/mL
[2]; [10]
  Minimum inhibitory concentration: 16 µg/mL
[3]
  Minimum inhibitory concentration: 1 µg/mL
[4]; strain FDA-CDC AR-BANK#0055
  MIC: 0.5 µg/mL
[4]; strain FDA-CDC AR-BANK#0114
  MIC: ≤ 0.0156 µg/mL
[4]; strain FDA-CDC AR-BANK#0370
  MIC: 0.125 µg/mL
[4]; strain FDA-CDC AR-BANK#0371
  MIC: ≤ 0.0156 µg/mL
[4]; [11]
  restoring to cefepime antibacterial activity against cefepime-resistant Escherichia coli: significantly restore to cefepime antibacterial activity
[5]; strain FDA-CDC AR-BANK#0003
  MIC: 0.0312 µg/mL
[5]; strain FDA-CDC AR-BANK#0076
  MIC: 0.25 µg/mL
[5]; strain FDA-CDC AR-BANK#0080
  MIC: 0.5 µg/mL
[5]; strain FDA-CDC AR-BANK#0126
  MIC: ≤ 0.0156 µg/mL
[5]; strain FDA-CDC AR-BANK#0158
  MIC: 0.5 µg/mL
[5]; [11]
  restoring to cefepime antibacterial activity against cefepime-resistant Klebsiella pneumoniae: significantly restore to cefepime antibacterial activity
[6]; strain FDA-CDC AR-BANK#0246, with CPM 8 μg/mL
  MIC: > 16 µg/mL
[6]; strain FDA-CDC AR-BANK#0439, with CPM 8 μg/mL
  MIC: > 16 µg/mL
[6]; strain FDA-CDC AR-BANK#0441, with CPM 8 μg/mL
  MIC: 2 µg/mL
[6]; strain FDA-CDC AR-BANK#0444, with CPM 8 μg/mL
  MIC: 4 µg/mL
[7]; strain FDA-CDC AR-BANK#0033
  MIC: > 16 µg/mL
[7]; strain FDA-CDC AR-BANK#0035
  MIC: > 16 µg/mL
[7]; strain FDA-CDC AR-BANK#0078
  MIC: 16 µg/mL
[8]; ATCCBAA1705, read-out: MIC, single substance (1-1-Na, QPX7728, CPM), strain ATCC BAA-1705, KPC-2, TEM, SHV, Class A
  MIC: 32 µg/mL (≈ 144 µM)
[8]; ATCCBAA1898, read-out: MIC, single substance (1-1-Na, QPX7728, CPM), strain ATCC BAA-1898, KPC-2, Class A
  MIC: 32 µg/mL (≈ 144 µM)
[8]; ATCCBAA1899, read-out: MIC, single substance (1-1-Na, QPX7728, CPM), strain ATCC BAA-1899, KPC-2, Class A
  MIC: 32 µg/mL (≈ 144 µM)
[8]; ATCCBAA2343, read-out: MIC, single substance (1-1-Na, QPX7728, CPM), strain ATCC BAA-2343, KPC, Class A
  MIC: 32 µg/mL (≈ 144 µM)
[8]; ATCCBAA2470, read-out: MIC, single substance (1-1-Na, QPX7728, CPM), strain ATCC BAA-2470, NDM-1, Class B
  MIC: 16 µg/mL (≈ 72.1 µM)
[8]; read-out: MIC, single substance (1-1-Na, QPX7728, CPM), strain ARLG-1127 (Urine), KPC, KPC-3, TEM, TEM-1, Class A
  MIC: 64 µg/mL (≈ 288 µM)
[8]; read-out: MIC, single substance (1-1-Na, QPX7728, CPM), strain ARLG-1195, CTM-1 group, SHV, NDM, Class A, B
  MIC: 32 µg/mL (≈ 144 µM)
[8]; read-out: MIC, single substance (1-1-Na, QPX7728, CPM), strain ARLG-1196, CTM-1 group, SHV, NDM, TEM, Class A, B
  MIC: 32 µg/mL (≈ 144 µM)
[8]; strain ARLG-1127 (Urine), KPC, KPC-3, TEM, TEM-1, Class A
  MIC, Cefepime + compound (8 ug/ml): ≤0.125 µg/mL
[8]; strain ARLG-1195, CTM-1 group, SHV, NDM, Class A, B
  MIC, Cefepime + compound (8 ug/ml): ≤0.125 µg/mL
[8]; strain ARLG-1196, CTM-1 group, SHV, NDM, TEM, Class A, B
  MIC, Cefepime + compound (8 ug/ml): ≤0.125 µg/mL
[8]; strain ATCC BAA-1705, KPC-2, TEM, SHV, Class A
  MIC, Cefepime + compound (8 ug/ml): ≤0.125 µg/mL
[8]; strain ATCC BAA-1898, KPC-2, Class A
  MIC, Cefepime + compound (8 ug/ml): <0.125 µg/mL
[8]; strain ATCC BAA-1899, KPC-2, Class A
  MIC, Cefepime + compound (8 ug/ml): <0.125 µg/mL
[8]; strain ATCC BAA-2343, KPC, Class A
  MIC, Cefepime + compound (8 ug/ml): ≤0.125 µg/mL
[8]; strain ATCC BAA-2470, NDM-1, Class B
  MIC, Cefepime + compound (8 ug/ml): ≤0.125 µg/mL
[8]; summary in words of Test Example 3 (sentence runs over b277-b278)
  restore to cefepime antibacterial activity against cefepime-resistant Klebsiella pneumoniae: significantly
